Data reported in patent publication US5385918A, “Aminomethylene-peptides as immunosuppressants” (Miles Inc., priority 1993, dated 1995).
pIC50: −log10 of the molar value.

Experiments:
human T-cells = test: Suppression of Human T-Cell Proliferation Assay (PHA-stimulated, [3H]-thymidine incorporation); type: cell-based; details: for pIC50: inhibition of [3H]-thymidine incorporation of PHA-stimulated purified human T-cells, 72 hours
Source text: Inhibition of mitogen-induced T-cell proliferation can be used to profile immunosuppressive activity of test compounds. In the description of the assay which follows, mitogen-induced T-cell proliferation was used to test the inhibitory potencies of select compounds of the present invention.
In an assay similar to that described by Bradley in Mishell et al. (Eds.), 1980, Selected Methods in Cellular Immunology, pp 156-161, W. H. Freeman & Co., San Fransisco, Calif., T-cells were stimulated by incubation with phytohemagglutinin (PHA) which binds to cell surface molecules, including the T-cell receptor. This stimulation results in proliferation which can be measured by incorporation of [^3 H]-thymidine into cellular DNA.
Fresh LeukoPaks were obtained from the New York Blood Center, New York, N.Y. The cells, including erythrocytes and leukocytes, were diluted with Hank's Balanced Salt Solution (HBSS) (GIBCO, Grand Island, N.Y.) and layered over Lymphoprep (Nycomed Pharma AS, Oslo, Norway) in sterile 50 ml conical centrifuge tubes. Lymphocytes were isolated at the Hank's/Nycomed interface after centrifugation at 2000×g, 4° C. for 15 min. The lymphocytes were washed with Minimal Essential Medium (GIBCO) containing 2% fetal bovine serum (FBS) (Sigma Chemical Co., St. Louis, Mo.), 1% HEPES buffer (GIBCO) and 1% Penicillin-Stretomycin solution (GIBCO).
T-cells were further purified essentially by sheep erythrocyte (SRBC) rosetting as described by Morimoto et al., 1983, J. Immunol. 130:157. The isolated lymphocytes were adjusted to 2×10^7 cells/ml and 5 ml aliquots of the cell suspension were incubated for 10 minutes at room temperature with 5 ml of a 5% SRBC (Cappel, Organon Technika Corp., West Chester, Pa.) suspension. The cells were gently pelleted by centrifugation at 300 rpm for 10 minutes, followed by a 1 hour incubation at room temperature to allow rosette formation. The cells were gently resuspended,layered over Lymphoprep and centrifuged for 30 minutes at 500×g. The pellet, containing rosetted T-cells and SRBC was treated with ice cold buffered ammonium chloride (GIBCO) to lyse the erythrocytes. T-cells were washed twice with HBSS.
Purified T-cells were resuspended at 2×10^6 cells/ml in complete culture medium composed of RPMI-1640 (Whittaker Bioproducts, Walkerville, Md.) with 10% FBS (Sigma), 2 mM L-glutamine (GIBCO), 1% Penicillin-Streptomycin (GIBCO) and 15 mM HEPES (GIBCO). In 96-well plates (Becton Dickinson, Lincoln Park, N.J.), 0.1 ml aliquots of T-cell suspension were mixed with 0.05 ml of 40 μg/ml PHA-M (Sigma). The compounds of this invention were dissolved in dimethylsulfoxide at 10 mM and various dilutions in complete medium were added in duplicate wells (0.05 ml/well). The plates were incubated at 37° C. in a humidified atmosphere of 5% carbon dioxide and 95% air for 72 hours.
Proliferation was assessed by measurement of [^3 H]-thymidine incorporation. During the last 6 hours of incubation, the cells were pulse labelled with 1 μCi/well of [^3 H]-thymidine (New England Nuclear, Boston, Mass.). The cells were harvested onto glass fiber paper using a plate harvester and the radioactivity incorporated into cellular DNA corresponding to individual wells was measured by standard liquid scintillation counting methods. The mean counts per minute (CPM) of replicate wells was calculated and linear regression analysis of mean CPM versus compound concentration was used to determine the concentration of compound which would inhibit [^3 H]-thymidine incorporation of T-cells by 50% (IC50).

FKBP = FKBP (Homo sapiens, UniProt P62942); test: PPIase Inhibition Assay; type: biochemical; details: inhibition of PPIase activity of FKBP, substrate Succinyl-Ala-Phe-Pro-Phe-para-nitroanilide
Protocol: This assay follows in principle the procedure described in Kofron et al., 1991, Biochemistry 30:6127. The three main reagents used are PPIase, a substrate for PPIase, and a selected inhibitor compound of the present invention. The basic principle behind this assay is the conversion of the cis isomer of the substrate to the trans form, which conversion is catalyzed by PPIase. Essentially, inhibition of this PPIase activity is measured for the selected compounds. A peptide chymotrypsin substrate containing a proline in the P2 position is only cleaved by chymotrypsin when the Phe-Pro bond is in the trans isomeric configuration. In the presence of excess chymotrypsin, all of the trans peptide isomers are cleaved within approximately five seconds, leaving only cis forms.
The cis peptide will spontaneously convert to the trans isomer at a slow rate. The cis to trans conversion is catalyzed by isomerases at a much faster rate than this spontaneous conversion. Proteins with PPIase activity are examples of such isomerases. After isomerization, the peptide is cleaved by chymotrypsin releasing p-nitroaniline which can be monitored at 390 nm. The rate of release is then calculated using a first order rate plus offset equation utilizing the ENZFITTER program (Leatherbarrow, BIOSOFT, Cambridge, United Kingdom).
In a plastic cuvette are added 950 ul of ice cold assay buffer (25 mM HEPES, pH 7.8, 100 mM NaCl), 10 uL of FKBP (2.5 uM in 10 mM Tris-Cl pH 7.5, 100 mM NaCl, 1 mM dithiothreitol), 25 ul of chymotrypsin (50 mg/ml in 1 mM HCl) and 10 ul of the test compound at various concentrations in dimethyl sulphoxide. The reaction is initiated by addition of 5 ul of substrate (Succinyl-Ala-Phe-Pro-Phe-para-nitroanilide, 5 mg/ml in 235 mM LiCl in trifluoroethanol).
The absorbance at 390 nm versus time is monitored for 90 sec using a Beckman DU70 spectrophotometer. The absorbance versus time data files are transferred to an IBM XT computer and the rate constants determined using the commercial Enzfitter program. For each set of data, the uncatalyzed rate of conversion is measured and the uninhibited enzymatic rate determined. The data are expressed as % Inhibition and are calculated as follows: [formula] where kobs is the rate in the presence of a selected test compound, kuncat is the rate in the absence of enzyme, and kuninh is the rate in the presence of enzyme and absence of inhibitor. Data are plotted as percent inhibition versus concentration of inhibitor. The values of the concentration of inhibitor required for 50% inhibition of enzyme activity (IC50) were determined by nonlinear least squares regression analysis.

Chain of FKBP (P62942 whole entry): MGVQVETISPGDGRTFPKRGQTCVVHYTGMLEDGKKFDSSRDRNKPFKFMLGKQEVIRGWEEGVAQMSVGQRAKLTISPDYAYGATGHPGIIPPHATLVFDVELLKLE

CCC(C)[C@@H](CN1CCC[C@H]1C(=O)N[C@H](C(=O)NCc1ccccc1)[C@@H](C)CC)NC(=O)[C@H](CC1CCCCC1)NC(=O)OC(C)(C)C (stereo partly drawn) [Example 7, 1-[1-[2-(S)-[[2-(S)-[[(1,1-Dimethylethoxy)carbonyl]amino]-1-oxo-3-cyclohexylpropyl]amino]-3-methylpentyl]-L-proline]-L-isoleucine Benzylamide]
pIC50 (human T-cells): 5.52
pIC50 (FKBP): 6.89

CC[C@H](C)[C@H](NC(=O)[C@@H]1CCCCN1C[C@H](CC(C)C)NC(=O)OC(C)(C)C)C(=O)NCc1ccccc1 [Example 18, 1-[1-[2-(S)-[[(1,1-Dimethylethoxy)carbonyl]amino]-4-methylpentyl]-L-homoproline]-L-isoleucine Benzylamide]
pIC50 (human T-cells): 5.40
pIC50 (FKBP): 5.89

CC[C@H](C)[C@H](NC(=O)[C@@H]1CCCN1C[C@@H](NC(=O)OC(C)(C)C)[C@@H](C)CC)C(=O)NCc1ccccc1 [Example 6]
pIC50 (human T-cells): 5.22
pIC50 (FKBP): 6.41

CC[C@H](C)[C@H](NC(=O)[C@@H]1CCCN1C[C@@H](NC(=O)OC(C)(C)C)C(C)C)C(=O)NCc1ccccc1 [Example 17, 1-[1-[2-(S)-[[(1,1-dimethylethoxy)carbonyl]amino]-3-methylbutyl]-L-proline] -L-isoleucine Benzylamide]
inhibition of mitogen induced T-cell proliferation (human T-cells): inhibited mitogen induced T-cell proliferation
pIC50 (human T-cells): 4.85
pIC50 (FKBP): 6.33

CCC(C)[C@@H](CN1CCC[C@H]1C(=O)N[C@H](C(=O)NCc1ccccc1)[C@@H](C)CC)NC(=O)[C@@H](N)CC1CCCCC1 (stereo partly shown) [Example 8]
pIC50 (human T-cells): 5.30
pIC50 (FKBP): 6.80

CC[C@H](C)[C@H](NC(=O)[C@@H]1CCCCN1C[C@@H](NC(=O)OC(C)(C)C)[C@@H](C)CC)C(=O)NCc1ccccc1 [Example 3, 1-[1-[2-(S)-[[(1,1-Dimethylethoxy)carbonyl]amino]-3-(S)-methylpentyl]-L-homoproline]-L-isoleucine Benzylamide]
pIC50 (human T-cells): 6.15
pIC50 (FKBP): 5.30

CC[C@H](C)[C@H](NC(=O)[C@@H]1CCCN1C[C@H](CC(C)C)NC(=O)[C@H](CC(N)=O)NC(=O)[C@H](Cc1ccccc1)NC(=O)OC(C)(C)C)C(=O)OCc1ccccc1 [Example 14, 1-[1-[2-(S)-[[1-[1-[(1,1-Dimethylethoxy)carbonyl]-L-phenylalanyl]-L-asparaginyl]amino]-4-methylpentyl]-L-proline]-L-isoleucine Phenylmethyl Ester]
inhibition of mitogen induced T-cell proliferation (human T-cells): inhibited mitogen induced T-cell proliferation
pIC50 (human T-cells): > 5.22
pIC50 (FKBP): > 4.30

CC[C@H](C)[C@H](NC(=O)[C@@H]1CCCN1C[C@H](CC1CCCCC1)NC(=O)OC(C)(C)C)C(=O)NCc1ccccc1 [Example 16, 1-[1-[2-(S)-[[(1,1-dimethylethoxy)carbonyl]amino]-3-cyclohexylpropyl]-L-proline]-L-isoleucine Benzylamide]
pIC50 (human T-cells): 5.22
pIC50 (FKBP): < 5.30

CC[C@H](C)[C@H](NC(=O)[C@@H]1CCCN1C[C@H](CC(C)C)NC(=O)OC(C)(C)C)C(=O)NCc1ccccc1 [Example 2, 1-[1-[2-(S)-[[(1,1-Dimethylethoxy)carbonyl]amino]-4-methylpentyl]-L-proline]-L-isoleucine Benzylamide]
pIC50 (human T-cells): 5.15
pIC50 (FKBP): 6.24

CC[C@H](C)[C@@H](CN1CCCC[C@H]1C(=O)N[C@H](C(=O)NCc1ccccc1)[C@@H](C)OCc1ccccc1)NC(=O)OC(C)(C)C [Example 19, 1-[1-[2-(S)-[[(1,1-Dimethylethoxy)carbonyl]amino]-3-(S)-methylpentyl]-L-homoproline]-L-threonene(O-Benzyl Ether)Benzylamide]
pIC50 (human T-cells): 4.77
pIC50 (FKBP): 5.30
